# Patent US20170027893A1, “THIOSEMICARBAZONES INHIBITORS OF LYSOPHOSPHATIDIC ACID ACYLTRANSFERASE AND USES THEREOF” (H. LEE CANCER CENTER AND RESEARCH INSTITUTE, INC., priority 2014, published 2017)
# Values joined by “and” are separate entries in the source; they are usually repeats but may differ in a detail not shown here. Identical values can stand only once. Like-named read-outs stand apart in the source and are kept apart here.
# How the values were obtained:
# [1] = test system: MiaPaCa2 human pancreatic cancer cells; experiment: inhibition of proliferation, Alamar blue, 72 h; format: cell-based
# Protocol: The ability of selected compounds from the libraries 6, 15 and 19 to inhibit the growth of MiaPaCa2 human pancreatic cancer cells was investigated. Human pancreatic carcinoma (MiaPaCa2) cells were plated at a low confluency into 96-well tissue culture-treated plates. After allowing cells to attach and grow overnight at 37 degrees in a 5% CO2 incubator, growth medium was replaced with fresh medium (100 μl/well) containing compounds in a range from 0.1-100 μM. All treatments were made from 500× stock solutions in DMSO, and the control wells received an equivalent amount of DMSO in medium. After 72 hours of growth in the presence of the compounds, Alamar blue was added to the wells according to the manufacturer's instructions (Life Technologies, Grand Island, N.Y.) and cells were incubated in its presence for 2-3 hours. Fluorescence readings were performed using a Biotek Synergy II plate reader with […] wavelengths of 530/590 nm. […] Calculated IC50s are representative of at least three independent experiments.
# LPAAT-β [2] = target: T1, LPAAT-β (Homo sapiens, UniProt O15120); experiment: DTNB (Ellman's reagent) 96-well plate screening assay of LPAAT-β enzymatic activity; format: biochemical; parameters: The assay utilizes full-length, recombinant, baculovirus-produced LPAAT-β; made in house
# T1 sequence (O15120 24-278): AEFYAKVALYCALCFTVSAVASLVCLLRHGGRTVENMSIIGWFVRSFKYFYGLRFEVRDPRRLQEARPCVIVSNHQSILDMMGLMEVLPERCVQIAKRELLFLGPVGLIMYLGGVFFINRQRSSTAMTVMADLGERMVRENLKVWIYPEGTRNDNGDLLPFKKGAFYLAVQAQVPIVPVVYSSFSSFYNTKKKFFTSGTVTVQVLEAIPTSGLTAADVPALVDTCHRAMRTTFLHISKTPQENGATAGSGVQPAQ
# Protocol: Screening with a modified screening assay in 96-well plate format for LPAAT-β enzymatic activity was performed as reported by Aguado and Campbell (Aguado et al., Characterization of a human lysophosphatidic acid acyltransferase that is encoded by a gene located in the class III region of the human major histocompatibility complex. J. Biol. Chem. 1998, 273, 4096-105).
# The assay utilizes full-length, recombinant, baculovirus-produced LPAAT-β, which catalyzes the production of dioleoyl-[…] from the enzymatic substrates oleoyl-lysophosphatidic acid (LPA) and oleoyl-coenzyme A (Scheme 2). The ability of the compound to inhibit the LPAAT-β activity was assayed by the colorimetric measurement of the reaction of the free thiol group of the released coenzyme A with Ellman's reagent [5,5′-dithiobis-(2-nitrobenzoic acid) or DTNB] (Riener et al., Quick measurement of protein sulfhydryls with Ellman's reagent and with 4,4′-dithiodipyridine. Anal. Bioanal. Chem. 2002, 373, 266-76). […] A hit identified from the Life Chemicals library 6a (IC50 100 nM) was selected for further investigation.
# LPAAT-β [3] = target: T1, LPAAT-β; experiment: secondary thin layer chromatography (TLC) assay measuring fluorescent PA; format: biochemical; parameters: The assay utilizes full-length, recombinant, baculovirus-produced LPAAT-β; made in house
# LPAAT-β [4] = target: T1, LPAAT-β; conditions: previously reported inhibitors; cited from earlier work
# [5] = Table 4, read-out: IC50 (μm) (DTNB assay) (converted)
# [6] = read-out: IC50 (μM) (DTNB assay) (converted)
Compound,IC50 (LPAAT-β [2]; [5]) [µM],IC50 (LPAAT-β [2]; [6]),IC50 (LPAAT-β [3]) [µM],IC50 (LPAAT-β [3]; Table 4) [µM],other results
CCc1cccc(C=NNC(N)=S)c1O [Compound 6j],–,0.85 ± 0.56 µM,48 ± 15,–,"IC50 ([1]; Homo sapiens, MIA PaCa-2): 36 ± 20 µM"
CCCCc1cccc(C=NNC(N)=S)c1O [Compound 6o],–,–,> 10,–,–
C=CCc1cccc(C=NNC(=S)NC)c1O [Compound 10a],–,3.9 ± 2.3 µM,> 10,–,–
CCCc1cccc(C=NN=c2scc(-c3ccccc3)n2C)c1O [Compound 11b],–,> 100 µM,> 10,–,LPAAT-β inhibitory activity in words (assay not given) (LPAAT-β [2]): inactive
C=CCc1cccc(C=NN=c2[nH]c(-c3ccccc3)cs2)c1O [Compound 11c],–,> 100 µM,> 10,–,–
NC(=S)NN=Cc1cccc(CCCc2ccccc2)c1O [Compound 6r],–,> 100 µM,–,–,–
C=CCc1cc(Cl)cc(C(C)=NNC(N)=S)c1O [Compound 19a],0.17 ± 0.09,0.17 ± 0.09 µM,3.3 ± 1.2,3.3 ± 1.2,IC50 [1]: 14 ± 5.5 µM
C=CCc1cc(Cl)cc(C(C)=NNC(N)=S)c1O [Compound 15d],–,0.2 µM,32,–,–
NC(=S)NN=Cc1cccc(C(F)(F)F)c1O [Compound 6i],–,7 µM,> 10,–,–
CCOc1ccc(Cl)cc1-c1cc(N)nc(Nc2ccc(Cl)cc2)c1 [Compound 2],–,–,–,–,"in vitro activity against LPAAT-β enzyme activity, in words (LPAAT-β [4]): potent in vitro activity"
CC(=NNC(N)=S)c1cc(Cl)ccc1O [Compound 15e],–,2.8 µM,> 10,–,–
C=CCc1cccc(/C=N/NC(N)=S)c1O [Compound 6a],–,0.86 ± 0.52 µM,33 ± 13,–,"IC50 ([1]; Homo sapiens, MIA PaCa-2): 38 ± 17 µM; IC50 (LPAAT-β [2]; hit from the Life Chemicals library, before resynthesis, read-out: IC50 of the hit in the library screen): 0.1 µM"
CCCc1cccc(C=NNC(N)=S)c1O [Compound 6k],–,–,19 ± 11,–,–
Cc1cccc(C=NNC(N)=S)c1O [Compound 6h],–,7.5 µM,> 10,–,–
CCOc1cccc(C=NNC(N)=S)c1O [Compound 6d],–,> 100 µM,> 10,–,LPAAT-β inhibitory activity in words (assay not given) (LPAAT-β [2]): inactive
CCCCCCCc1cccc(C=NNC(N)=S)c1O [Compound 6q],–,> 100 µM,9.7,–,–
NC(=S)N/N=C/c1ccc2ccccc2c1O [Compound 6s],–,6.4 ± 4.7 µM,–,–,–
C=CCc1cccc(C=NN=c2scc(-c3ccccc3)n2C)c1O [Compound 11a],–,> 100 µM,> 10,–,LPAAT-β inhibitory activity in words (assay not given) (LPAAT-β [2]): inactive
NNC(N)=S [Thiosemicarbazide],–,–,–,–,LPAAT-β inhibitory activity in words (assay not given) (LPAAT-β [2]): not by itself active

Compound,IC50 (LPAAT-β [2]; [5]) [µM],IC50 (LPAAT-β [2]; [6]),IC50 (LPAAT-β [3]) [µM],IC50 (LPAAT-β [3]; Table 4) [µM],other results
CCCCCc1cccc(C=NNC(N)=S)c1O [Compound 6p],–,> 100 µM,> 10,–,–
CC(C)c1cccc(C=NNC(N)=S)c1O [Compound 6l],–,13 ± 8.4 µM,30,–,–
NC(=S)NN=Cc1cccc(F)c1O [Compound 6e],–,4.3 µM,> 10,–,–
C=CCc1cccc(/C=N/NC(N)=O)c1O [Compound 6w],–,–,–,–,LPAAT-β inhibitory activity in words (assay not given) (LPAAT-β [2]): inactive
NC(=S)NN=Cc1cccc(C2CCCCC2)c1O [Compound 6n],–,> 100 µM,> 10,–,–
NC(=S)NN=Cc1cccc(-c2ccccc2)c1O [Compound 6m],–,40 ± 10 µM,> 10,–,–
CCCc1cccc(C(C)=NNC(N)=S)c1O [Compound 15a],–,0.65 ± 0.42 µM,35 ± 18,–,"IC50 ([1]; Homo sapiens, MIA PaCa-2): 23 ± 15 µM"
CCCc1cccc(C=NNC(=S)NC(=O)c2ccccc2)c1O [Compound 10c],–,> 100 µM,–,–,LPAAT-β inhibitory activity in words (assay not given) (LPAAT-β [2]): inactive
C=CCc1cccc(C(C)=NNC(N)=S)c1O [Compound 15b],–,0.52 ± 0.25 µM,> 10,–,–
NC(=S)NN=Cc1cccc(O)c1O [Compound 6c],–,> 100 µM,> 10,–,LPAAT-β inhibitory activity in words (assay not given) (LPAAT-β [2]): inactive
C=CCc1cc(Br)cc(C(C)=NNC(N)=S)c1O [Compound 19c],0.1,–,–,4.1,–
CCc1cccc(C(C)=NNC(N)=S)c1O [Compound 15c],–,0.73 ± 0.76 µM,> 10,–,–
NC(=S)N/N=C/c1cccc2c1oc1ccccc12 [Compound 6t],–,–,–,–,LPAAT-β inhibitory activity in words (assay not given) (LPAAT-β [2]): inactive
CCCc1cccc(C=NNC(=S)NC)c1O [Compound 10b],–,14 ± 12 µM,> 10,–,–
CC(=NNC(N)=S)c1cc(Cl)cc(Cl)c1O [Compound 15f],–,0.27 µM,> 10,–,–
NC(=S)NN=Cc1cccc(Br)c1O [Compound 6g],–,1.5 µM,> 10,–,–
NC(=S)NN=Cc1cccc(Cl)c1O [Compound 6f],–,2 µM,> 10,–,–
C=CCc1cc(F)cc(C(C)=NNC(N)=S)c1O [Compound 19b],0.24,–,–,24,–
NC(=S)NN=Cc1ccccc1O [Compound 6b],–,> 100 µM,> 100,–,LPAAT-β inhibitory activity in words (assay not given) (LPAAT-β [2]): inactive; LPAAT-β inhibitory activity in words (TLC assay) (LPAAT-β [3]): inactive

# Now from value to compound, other results behind:
IC50 (LPAAT-β [2]; [5]) [µM],IC50 (LPAAT-β [2]; [6]),IC50 (LPAAT-β [3]) [µM],IC50 (LPAAT-β [3]; Table 4) [µM],Compound,other results
0.52 ± 0.23,0.52 ± 0.23 µM,2.1 ± 0.9,2.1 ± 0.9,C=CCc1cc(-c2ccc(Cl)cc2Cl)cc(C(C)=NNC(N)=S)c1O [Compound 19r],"IC50 ([1]; Homo sapiens, MIA PaCa-2): 7.6 ± 0.9 µM"
0.57 ± 0.27,0.57 ± 0.27 µM,17 ± 7.3,17 ± 7.3,C=CCc1cc(-c2cc(Cl)cc(Cl)c2)cc(C(C)=NNC(N)=S)c1O [Compound 19t],"IC50 ([1]; Homo sapiens, MIA PaCa-2): 4.9 ± 2 µM"
0.4 ± 0.19,0.36 ± 0.1 µM,–,1 ± 0.9,C=CCc1cc(-c2ccc(C#N)cc2)cc(C(C)=NNC(N)=S)c1O [Compound 19u],–
0.2,–,–,1.9,C=CCc1cc(CC)cc(C(C)=NNC(N)=S)c1O [Compound 19e],–
–,2.67 ± 0.25 µM,> 10,–,C=CCc1cc(C(C)=O)cc(C(C)=NNC(N)=S)c1O [Compound 19l],–
0.31,–,–,1.3,C=CCc1cc(C(C)(C)C)cc(C(C)=NNC(N)=S)c1O [Compound 19i],–
0.16,0.16 ± 0.07 µM,1.4 ± 1.1,1.4,C=CCc1cc(CCCC)cc(C(C)=NNC(N)=S)c1O [Compound 19h],IC50 [1]: 12 ± 3.3 µM
0.67 ± 0.16,0.67 ± 0.16 µM,9.2 ± 4.2,9.2 ± 4.2,C=CCc1cc(-c2ccc(C)c(Cl)c2)cc(C(C)=NNC(N)=S)c1O [Compound 19w],IC50 [1]: 7.2 ± 3.1 µM
0.19,–,–,3.2,C=CCc1cc(CCCCC)cc(C(C)=NNC(N)=S)c1O [Compound 19j],–
0.32 ± 0.07,0.32 ± 0.07 µM,2.5 ± 1.4,2.5 ± 1.4,C=CCc1cc(-c2ccc(Cl)cc2)cc(C(C)=NNC(N)=S)c1O [Compound 19p],IC50 [1]: 7.4 ± 2.3 µM
0.28 ± 0.02,0.28 ± 0.02 µM,> 10,> 10,C=CCc1cc(-c2cccc(C#N)c2)cc(C(C)=NNC(N)=S)c1O [Compound 19v],"IC50 ([1]; Homo sapiens, MIA PaCa-2): 7.8 ± 2.7 µM"
0.18,0.18 ± 0.07 µM,4.2 ± 1.2,4.2,C=CCc1cc(-c2ccc(Br)cc2)cc(C(C)=NNC(N)=S)c1O [Compound 19o],IC50 [1]: 5.8 ± 1.6 µM
–,1.15 µM and 0.19 µM,5.7 ± 2.5,–,C=CCc1cc(-c2ccccc2)cc(C(C)=NNC(N)=S)c1O [Compound 19n],–
0.16,–,–,1.4,C=CCc1cc(C(C)C)cc(C(C)=NNC(N)=S)c1O [Compound 19g],–
0.24,17 ± 7.3 µM,3.2 ± 1.6,5.2,C=CCc1cc(CCCCCC)cc(C(C)=NNC(N)=S)c1O [Compound 19k],–
1.15,–,–,–,C=CCc1cc(CC(=O)OC)cc(C(C)=NNC(N)=S)c1O [Compound 19m],–
0.46,–,–,> 10,C=CCc1cc(C#N)cc(C(C)=NNC(N)=S)c1O [Compound 19d],–
0.27,–,–,2.4,C=CCc1cc(CCC)cc(C(C)=NNC(N)=S)c1O [Compound 19f],–
0.29 ± 0.06,–,–,5.1 ± 3,C=CCc1cc(-c2ccc(F)cc2)cc(C(C)=NNC(N)=S)c1O [Compound 19q],–
